“And” between values parts separate entries of the source, which are not always exact repeats. Equal entries are not always repeated.
Tests used:
PKCΙ, α and γ = assay: Radioactive in vitro kinase profiling of PKC isoforms on non-specific substrate; format: biochemical; conditions: myelin basic protein substrate; maximum 100 μM
PKCΙ = biological target: T1, PKCΙ (Homo sapiens, UniProt P41743); assay: Biacore direct interaction with PKCΙ; conditions: read-out: KD for binding to PKCΙ, data not shown
T1 sequence (P41743 1-596): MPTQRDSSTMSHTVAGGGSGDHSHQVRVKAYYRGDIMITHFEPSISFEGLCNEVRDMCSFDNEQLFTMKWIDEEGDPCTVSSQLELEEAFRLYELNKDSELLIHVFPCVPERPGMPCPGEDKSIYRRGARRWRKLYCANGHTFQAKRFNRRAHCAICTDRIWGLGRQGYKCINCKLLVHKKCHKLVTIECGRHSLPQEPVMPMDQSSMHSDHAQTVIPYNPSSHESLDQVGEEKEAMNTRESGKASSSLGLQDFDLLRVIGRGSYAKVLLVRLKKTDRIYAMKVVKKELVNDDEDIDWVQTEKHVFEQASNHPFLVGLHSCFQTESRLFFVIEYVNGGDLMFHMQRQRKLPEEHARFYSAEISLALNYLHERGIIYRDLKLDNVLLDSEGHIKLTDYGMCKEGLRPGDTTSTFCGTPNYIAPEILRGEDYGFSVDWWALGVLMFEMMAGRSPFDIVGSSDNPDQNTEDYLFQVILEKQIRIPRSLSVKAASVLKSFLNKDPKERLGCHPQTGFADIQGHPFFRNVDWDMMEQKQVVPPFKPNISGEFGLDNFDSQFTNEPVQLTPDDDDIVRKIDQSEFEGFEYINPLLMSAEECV

actin = assay: SPR binding to actin; conditions: read-out: KD for binding to actin; negative control; data not shown
Xenopus embryos = assay: Xenopus embryo development assay; format: in vivo
recombinant WT ezrin = recombinant WT ezrin (Mus musculus, UniProt P26040); assay: SPR direct binding to immobilized recombinant WT ezrin
recombinant WT ezrin, sequence (P26040 whole entry): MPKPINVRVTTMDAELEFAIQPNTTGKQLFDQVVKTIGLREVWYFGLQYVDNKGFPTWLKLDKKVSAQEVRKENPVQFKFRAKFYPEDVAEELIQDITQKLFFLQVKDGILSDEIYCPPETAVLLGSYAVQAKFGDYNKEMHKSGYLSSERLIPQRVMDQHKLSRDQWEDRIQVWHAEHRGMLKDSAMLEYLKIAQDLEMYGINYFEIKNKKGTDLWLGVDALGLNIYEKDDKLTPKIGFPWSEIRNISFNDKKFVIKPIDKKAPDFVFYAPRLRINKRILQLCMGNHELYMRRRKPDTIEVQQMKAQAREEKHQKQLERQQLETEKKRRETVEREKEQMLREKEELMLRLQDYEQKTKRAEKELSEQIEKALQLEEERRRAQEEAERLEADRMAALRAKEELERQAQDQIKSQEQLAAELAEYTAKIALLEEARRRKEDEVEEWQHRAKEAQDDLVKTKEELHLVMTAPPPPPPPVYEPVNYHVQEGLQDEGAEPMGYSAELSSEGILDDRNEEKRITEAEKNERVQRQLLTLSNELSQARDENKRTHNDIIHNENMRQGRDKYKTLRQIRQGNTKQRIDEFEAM

[1] = test system: K7M2 lung metastasis in BALB/c mice; assay: In vivo experimental lung metastasis model, K7M2 cells; set-up: species or system mouse
[2] = test system: MNNG-HOS lung metastasis in SCID/Beige mice; assay: In vivo experimental lung metastasis model, MNNG-HOS cells; set-up: species or system mouse
[3] = test system: GFP-expressing K7M2 OS cells in lung slices; assay: Ex vivo mouse lung organ culture; format: cell-based; conditions: 10 μM, vs DMSO 1%
[4] = biological target: PKCΙ phosphorylation of moesin (Homo sapiens, UniProt P26038); assay: In vitro kinase assay: PKCΙ phosphorylation of moesin; format: biochemical; conditions: read-out: IC50, PKCΙ phosphorylation of moesin
PKCΙ phosphorylation of moesin, sequence (P26038 whole entry): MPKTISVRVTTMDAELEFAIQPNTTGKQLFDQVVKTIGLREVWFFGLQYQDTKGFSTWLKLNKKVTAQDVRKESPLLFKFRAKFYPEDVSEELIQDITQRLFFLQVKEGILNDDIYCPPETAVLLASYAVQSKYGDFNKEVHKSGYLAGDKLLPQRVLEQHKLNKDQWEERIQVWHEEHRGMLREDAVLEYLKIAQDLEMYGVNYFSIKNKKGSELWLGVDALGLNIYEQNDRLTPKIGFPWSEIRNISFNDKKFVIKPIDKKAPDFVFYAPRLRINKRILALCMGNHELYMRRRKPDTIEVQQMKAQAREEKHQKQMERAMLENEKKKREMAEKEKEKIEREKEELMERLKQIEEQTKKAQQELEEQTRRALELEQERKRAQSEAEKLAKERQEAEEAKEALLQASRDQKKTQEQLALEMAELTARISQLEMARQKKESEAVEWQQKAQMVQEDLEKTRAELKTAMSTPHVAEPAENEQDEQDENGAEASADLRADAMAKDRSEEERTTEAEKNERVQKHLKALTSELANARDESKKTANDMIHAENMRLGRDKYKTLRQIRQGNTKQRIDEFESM

zebrafish embryos = assay: Zebrafish embryo development assay
[5] = mouse
K12 cells = assay: Invasion of HUVEC monolayer by K12 cells; format: cell-based, murine; conditions: 10 μM
[6] = biological target: PKCΙ phosphorylation of radixin (Homo sapiens, UniProt P35241); assay: In vitro kinase assay: PKCΙ phosphorylation of radixin; format: biochemical; conditions: read-out: IC50, PKCΙ phosphorylation of radixin
PKCΙ phosphorylation of radixin, sequence (P35241 whole entry): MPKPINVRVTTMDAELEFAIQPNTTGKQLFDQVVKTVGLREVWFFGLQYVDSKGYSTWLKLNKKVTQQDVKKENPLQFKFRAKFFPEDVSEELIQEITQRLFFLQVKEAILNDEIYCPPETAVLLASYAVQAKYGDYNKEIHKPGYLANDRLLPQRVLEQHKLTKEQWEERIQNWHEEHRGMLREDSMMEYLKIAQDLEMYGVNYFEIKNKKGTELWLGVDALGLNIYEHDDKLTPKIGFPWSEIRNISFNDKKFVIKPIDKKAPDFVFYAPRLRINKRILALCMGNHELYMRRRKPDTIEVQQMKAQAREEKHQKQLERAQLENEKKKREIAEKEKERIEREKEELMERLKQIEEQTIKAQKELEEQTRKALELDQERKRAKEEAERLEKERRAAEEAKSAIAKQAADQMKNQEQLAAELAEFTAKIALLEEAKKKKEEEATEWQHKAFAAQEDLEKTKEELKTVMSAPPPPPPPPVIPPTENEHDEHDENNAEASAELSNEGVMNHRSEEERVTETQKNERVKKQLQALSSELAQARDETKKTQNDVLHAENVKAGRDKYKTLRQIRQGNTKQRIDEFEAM

K7M2 cells [7] = assay: Invasion of HUVEC monolayer by K7M2 cells; format: cell-based, murine; conditions: 10 μM, 5 h, vs DMSO (1%)
[8] = test system: K7M2 cells, K12 cells or HUVECs; assay: Cell viability assays; format: cell-based; conditions: 10 μM; K7M2, K12, HUVEC; data not shown
[9] = biological target: endogenous ezrin in K7M2 OS cells (Mus musculus, UniProt P26040); assay: Immunoprecipitation/immunoblotting of endogenous ezrin in K7M2 cells; format: cell-based, murine; conditions: 10 μM, 6 h
endogenous ezrin in K7M2 OS cells, sequence (P26040 whole entry): as the sequence (P26040 whole entry) above

K7M2 cells [10] = assay: Cell migration assay for synergy; format: cell-based, murine; conditions: combination of NSC305787 and NSC668394

SMILES: OC(c1cc(C23CC4CC(CC(C4)C2)C3)nc2c(Cl)cc(Cl)cc12)C1CCCCN1 (centres unmarked) [NSC305787]
- inhibition of PKC activity (PKCΙ, α and γ) (PKCΙ, α and γ): required higher concentration than that required to inhibit ezrin phosphorylation
- Kd (PKCΙ): 172 µM
- Kd (actin): 91.4 µM
- Xenopus embryo phenotype at stage 12.5 (Xenopus embryos; 10 μM): gastrulation defects
- Xenopus embryo phenotype by stage 37 (Xenopus embryos; 10 μM): delays in development and ventral defects
- Xenopus embryo phenotype by stage 50 (Xenopus embryos; 10 μM): short and bent tails and reduced eyes
- Xenopus embryo phenotype at high concentration (Xenopus embryos; 40 μM): severe gastrulation defects and embryonic death
- binding kinetics on ezrin (recombinant WT ezrin; comparison of the two compounds): bound to and dissociated faster from ezrin than NSC668394
- Kd (recombinant WT ezrin; read-out: KD for binding to ezrin, average of five independent experiments): 5.85 µM and ~10 µM
- number of GFP-expressing metastatic foci in lung tissues ([1]; K7M2-injected mice): significant decrease
- overall survival vs vehicle group ([1]; K7M2, log-rank, P = 0.0337 (NSC305787), P = 0.0524 (NSC668394)): significantly different from that of the vehicle-treated group
- phospho-ezrin levels in lung–liver–kidney–spleen–skin samples ([1]; treated vs control (DMSO) animals): did not observe any meaningful differences
- median survival ([2]; MNNG-HOS tail vein, vehicle 50.5 days): 49 days
- number of GFP-expressing metastatic foci in lung tissues ([2]; MNNG-HOS-injected mice): no differences
- survival, control vs treatment groups ([2]; MNNG-HOS-injected mice): no difference in survival
- lung metastases growth of K7M2 cells in organ culture (GFP fluorescence) [3]: significantly inhibited
- IC50 [4]: 9.4 µM
- zebrafish embryo phenotype (zebrafish embryos; 10 μM): mimicked the ezrin MO phenotype
- embryos with epiboly defects (zebrafish embryos; 10 μM, 12 of 81 embryos): 15%
- embryos with epiboly defects (zebrafish embryos; 20 μM, 71 of 71 embryos): 100%
- in vivo tolerability [5]: very well tolerated in vivo without any obvious acute toxicity
- invasion by K12 cells on HUVEC monolayer (K12 cells): no effect on invasion
- IC50 [6]: 55 µM
- invasion by K7M2 cells on HUVEC monolayer (K7M2 cells [7]): inhibited invasion
- cytotoxicity [8]: Neither compound was cytotoxic
- T567 phosphorylation of endogenous ezrin [9]: inhibited
- actin binding of endogenous ezrin [9]: inhibited
- cellular ezrin levels [9]: without altering cellular ezrin levels
- synergy between both compounds in cellular migration (K7M2 cells [10]): do not show any synergy

Source: article PMC3513970 (Oncogene, 2011)
